# Measured values published in patent publication US10000454B2, “Antidiabetic tricyclic compounds” (Merck Sharp & Dohme Corp., priority 2014, dated 2018).
# Columns and labels:
# Human GPR40 [1] = biological target: T1, Human GPR40 (Homo sapiens, UniProt O14842); test: FLIPR assay, agonist-induced calcium mobilization; assay type: cell-based; parameters: expressed in transfected cells; settings: GPR40/CHO NFAT BLA cells
# Protocol: (§1) Human and mouse GPR40 stable cell-lines were generated in CHO cells stably expressing NFAT BLA (Beta-lactamase). A human GPR40 stable cell-line was generated in HER cells stably expressing the aequorin expressing reporter. The expression plasmids were transfected using lipofectamine (Life Technologies) following manufacturer's instructions. Stable cell-lines were generated following drug selection.
# FLIPR (Fluorimetric Imaging Plate Reader, Molecular Devices) assays were performed to measure agonist-induced calcium mobilization of the stable clones. For the FLIPR assay, one day before assay, GPR40/CHO NFAT BLA cells were seeded into black-wall-clear-bottom 384-well plates (Costar) at 1.4×10e4 cells/20 μL medium/well. The cells were incubated with 20 μl/well of the assay buffer (HMS, 0.1% BSA, 20 mM HEPES, 2.5 mM probenecid, pH 7.4) containing 8 μM fluo-4, AM, 0.08% pluronic acid at room temperature for 100 minutes. Fluorescence output was measured using FLIPR. Compounds were dissolved in DMSO and diluted to desired concentrations with assay buffer. 13.3 μL/well of compound solution was added.
# Human GPR40 [2] = biological target: T1, Human GPR40; test: Inositol Phosphate Turnover (IP1) Assay; assay type: cell-based; parameters: expressed in transfected cells; host or cells: HEK cells (stably expressing the aequorin reporter); settings: HEK cells stably expressing human GPR40, CisBio IP-One kit
# Protocol: as §1
# The assay is performed in 384-well format. HEK cells stably expressing human GPR40 are plated at 15,000 cells per well in growth medium (DMEM/10% fetal calf serum). Cell plates are then incubated 16 hours at 37 degrees in a 5% CO2 incubator.
# Measurement of Inositol Phosphate Turnover (IP1) is performed using the CisBio IP-One kit (Part number 62IPAPEB). After the 16 hour incubation, the cells are washed with HEPES buffer and 10 ul of stimulation buffer (prepared as described in the kit) is added to each well. In a separate plate, compounds are diluted in DMSO (400-fold over the final concentration in the assay well) and 25 nl is acoustically transferred to the appropriate well in the assay cell plate. The plates are then incubated for 60 minutes at 37 degrees. 10 ul of detection buffer (also prepared as described in the IP-One kit) is added to each well and the plates are incubated for 60 minutes in the dark. The plates are then read in a Perkin Elmer EnVision or equivalent reader able to measure FRET. Fluorescent ratio of emission at 665 and 620 nm is then converted to IP1 concentration by back calculating from an IP1 standard curve prepared at the time of the assay.
# T1 sequence (O14842 whole entry): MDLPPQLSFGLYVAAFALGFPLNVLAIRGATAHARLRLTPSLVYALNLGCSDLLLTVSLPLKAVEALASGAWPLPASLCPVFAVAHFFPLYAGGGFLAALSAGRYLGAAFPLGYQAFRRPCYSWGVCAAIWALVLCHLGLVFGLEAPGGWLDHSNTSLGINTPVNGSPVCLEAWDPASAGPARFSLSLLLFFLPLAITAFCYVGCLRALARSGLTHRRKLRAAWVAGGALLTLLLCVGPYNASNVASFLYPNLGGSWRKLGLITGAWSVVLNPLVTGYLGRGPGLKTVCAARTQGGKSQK
Compound,EC50 (Human GPR40 [1]) [nM],EC50 (Human GPR40 [2]) [nM]
"O=C1CC(c2ccccc2C(F)(F)F)c2cc(COc3cc4c(cn3)[C@H]3[C@@H](C4)[C@@H]3C(=O)O)ccc21 (stereo partly drawn) [Example 2, (5aR,6S,6aS)-3-((1-oxo-3-(2-(trifluoromethyl)-phenyl)-2,3-dihydro-1H-inden-5-yl)methoxy)-5,5a,6,6a-tetrahydro-cyclopropa[4,5]cyclopenta [1,2-c]pyridine-6-carboxylic acid]",50.5,47.4
"CC1(C)CC(c2ccccc2C(F)(F)F)c2cc(COc3cc4c(cn3)[C@H]3[C@@H](C4)[C@@H]3C(=O)O)ccc21 (stereo partly drawn) [Example 3, (5aR,6S,6aS)-3-((1,1-dimethyl-3-(2-(trifluoromethyl)phenyl)-2,3-dihydro-1H-inden-5-yl)methoxy)-5,5a,6,6a-tetrahydrocyclopropa[4,5]cyclopenta[1,2-c]pyridine-6-carboxylic acid]",9.28,769
CC1(C)C=C(c2ccccc2C(F)(F)F)c2cc(COc3cc4c(cn3)[C@H]3[C@@H](C4)[C@@H]3C(=O)O)ccc21 [Example 4],13.7,18
"CC1CC(c2ccccc2C(F)(F)F)c2cc(COc3cc4c(cn3)[C@H]3[C@@H](C4)[C@@H]3C(=O)O)ccc21 (stereo partly drawn) [Example 5, (5aR,6S,6aS)-3-((1-methyl-3-(2-(trifluoromethyl)phenyl)-2,3-dihydro-1H-inden-5-yl)methoxy)-5,5a,6,6a-tetrahydrocyclopropa[4,5]cyclopenta[1,2-c]pyridine-6-carboxylic acid]",20.8,21.6
"O=C(O)[C@H]1[C@@H]2Cc3cc(OCc4ccc5c(c4)C(c4ccccc4C(F)(F)F)CC54CCC4)ncc3[C@@H]21 (stereo partly drawn) [Example 6, (5aR,6S,6aS)-3-((3′-(2-(trifluoromethyl)phenyl)-2′,3′-dihydrospiro[cyclobutane-1,1′-inden]-5′-yl)methoxy)-5,5a,6,6a-tetrahydrocyclopropa[4,5]cyclopenta[1,2-c]pyridine-6-carboxylic acid]",22.9,22.6
"O=C(O)[C@H]1[C@@H]2Cc3cc(OCc4ccc5c(c4)C(c4ccccc4C(F)(F)F)CC54COC4)ncc3[C@@H]21 (stereo partly drawn) [Example 7, (5aR,6S,6aS)-3-((3-(2-(trifluoromethyl)phenyl)-2,3-dihydrospiro[indene-1,3′-oxetan]-5-yl)methoxy)-5,5a,6,6a-tetrahydrocyclopropa[4,5]cyclopenta[1,2-c]pyridine-6-carboxylic acid]",32.9,35.3
"CC1(C)OCC2(CO1)CC(c1ccccc1C(F)(F)F)c1cc(COc3cc4c(cn3)[C@H]3[C@@H](C4)[C@@H]3C(=O)O)ccc12 (stereo partly drawn) [Example 8, (5aR,6S,6aS)-3-((2,2-dimethyl-3′-(2-(trifluoromethyl)phenyl)-2′,3′-dihydrospiro[[1,3]dioxane-5,1′-inden]-5′-yl)methoxy)-5,5a,6,6a-tetrahydrocyclopropa[4,5]cyclopenta[1,2-c]pyridine-6-carboxylic acid]",12.3,21.1
"CC1(C)CC(c2ccccc2)c2cc(COc3cc4c(cn3)[C@H]3[C@@H](C4)[C@@H]3C(=O)O)ccc21 (stereo partly drawn) [Example 9, (5aR,6S,6aS)-3-((1,1-dimethyl-3-phenyl-2,3-dihydro-1H-inden-5-yl)methoxy)-5,5a,6,6a-tetrahydrocyclopropa[4,5]cyclopenta[1,2-c]pyridine-6-carboxylic acid]",16.9,22.4
"CC1(C)CC(c2c(F)cccc2F)c2cc(COc3cc4c(cn3)[C@H]3[C@@H](C4)[C@@H]3C(=O)O)ccc21 (stereo partly drawn) [Example 10, (5aR,6S,6aS)-3-((3-(2,6-difluorophenyl)-1,1-dimethyl-2,3-dihydro-1H-inden-5-yl)methoxy)-5,5a,6,6a-tetrahydro-cyclopropa[4,5]cyclopenta [1,2-c]pyridine-6-carboxylic acid]",4.9,38.9
"CC1(C)CC(c2ccccc2Cl)c2cc(COc3cc4c(cn3)[C@H]3[C@@H](C4)[C@@H]3C(=O)O)ccc21 (stereo partly drawn) [Example 11, (5aR,6S,6aS)-3-((3-(2-chlorophenyl)-1,1-dimethyl-2,3-dihydro-1H-inden-5-yl)methoxy)-5,5a,6,6a-tetrahydro-cyclopropa[4,5]cyclopenta [1,2-c]pyridine-6-carboxylic acid]",17.8,35.1
"CC1(C)CC(c2ccccc2S(C)(=O)=O)c2cc(COc3cc4c(cn3)[C@H]3[C@@H](C4)[C@@H]3C(=O)O)ccc21 (stereo partly drawn) [Example 13, (5aR,6S,6aS)-3-((1,1-dimethyl-3-(2-(methyl-sulfonyl)phenyl)-2,3-dihydro-1H-inden-5-yl)methoxy)-5,5a,6,6a-tetrahydrocyclopropa[4,5] cyclopenta[1,2-c]pyridine-6-carboxylic acid]",22.6,40.6
"COc1ncccc1C1CC(C)(C)c2ccc(COc3cc4c(cn3)[C@H]3[C@@H](C4)[C@@H]3C(=O)O)cc21 (stereo partly drawn) [Example 14, (5aR,6S,6aS)-3-((3-(2-methoxypyridin-3-yl)-1,1-dimethyl-2,3-dihydro-1H-inden-5-yl)methoxy)-5,5a,6,6a-tetrahydro-cyclopropa[4,5]cyclopenta [1,2-c]pyridine-6-carboxylic acid]",11.6,21.8
"COc1nccc(C)c1C1CC(C)(C)c2ccc(COc3cc4c(cn3)[C@H]3[C@@H](C4)[C@@H]3C(=O)O)cc21 (stereo partly drawn) [Example 15, (5aR,6S,6aS)-3-((3-(2-methoxy-4-methylpyridin-3-yl)-1,1-dimethyl-2,3-dihydro-1H-inden-5-yl)methoxy)-5,5a,6,6a-tetrahydrocyclopropa[4,5] cyclopenta[1,2-c]pyridine-6-carboxylic acid]",8.6,7.77
"Cn1cnc2cccc(C3CC(C)(C)c4ccc(COc5cc6c(cn5)[C@H]5[C@@H](C6)[C@@H]5C(=O)O)cc43)c21 (stereo partly drawn) [Example 16, (5aR,6S,6aS)-3-((1,1-dimethyl-3-(1-methyl-1H-benzo[d]imidazol-7-yl)-2,3-dihydro-1H-inden-5-yl)methoxy)-5,5a,6,6a-tetrahydrocyclopropa[4,5] cyclopenta[1,2-c]pyridine-6-carboxylic acid]",7.29,27.7
"CC1(C)CC(c2ccccc2F)c2cc(COc3cc4c(cn3)[C@H]3[C@@H](C4)[C@@H]3C(=O)O)ccc21 (stereo partly drawn) [Example 17, (5aR,6S,6aS)-3-((1,1-dimethyl-3-(2-fluorophenyl)-2,3-dihydro-1H-inden-5-yl)methoxy)-5,5a,6,6a-tetrahydrocyclopropa[4,5] cyclopenta[1,2-c]pyridine-6-carboxylic acid]",21.7,43.7
"O=C(O)[C@H]1[C@@H]2Cc3cc(OCc4ccc5c(c4)C(c4ccccc4C(F)(F)F)CC5c4ccccc4)ncc3[C@@H]21 (stereo partly drawn) [Example 18, (5aR,6S,6aS)-3-((1-phenyl-3-(2-(trifluoromethyl)phenyl)-2,3-dihydro-1H-inden-5-yl)methoxy)-5,5a,6,6a-tetrahydrocyclopropa[4,5]cyclopenta[1,2-c]pyridine-6-carboxylic acid]",13.2,24.6
"O=C(O)[C@H]1[C@@H]2Cc3cc(OCc4ccc5c(c4)C(c4ccccc4C(F)(F)F)CC5c4ccccc4)ncc3[C@@H]21 (stereo partly drawn) [Example 19, (5aR,6S,6aS)-3-((1-phenyl-3-(2-(trifluoromethyl)phenyl)-2,3-dihydro-1H-inden-5-yl)methoxy)-5,5a,6,6a-tetrahydrocyclopropa[4,5]cyclopenta[1,2-c]pyridine-6-carboxylic acid]",15.5,17.5
"O=C(O)[C@H]1[C@@H]2Cc3cc(OCc4ccc5c(c4)C(O)(c4ccccc4C(F)(F)F)CC5)ccc3[C@@H]21 (stereo partly drawn) [Example 21, (1S,1aS,6aR)-4-((3-hydroxy-3-(2-(trifluoromethyl)phenyl)-2,3-dihydro-1H-inden-5-yl)methoxy)-1,1a,6,6a-tetrahydrocyclopropa[a]indene-1-carboxylic acid]",17.7,16.6
CC1(C)CC(c2ccncc2C(F)(F)F)c2cc(COc3cc4c(cn3)[C@H]3[C@@H](C4)[C@@H]3C(=O)O)c(F)cc21 (stereo partly shown) [Example 25],6.92,6.91
"CC1(C)CC(c2cccnc2C(F)(F)F)c2cc(COc3cc4c(cn3)[C@H]3[C@@H](C4)[C@@H]3C(=O)O)c(F)cc21 (stereo partly drawn) [Example 26, (5aR,6S,6aS)-3-((6-fluoro-1,1-dimethyl-3-(2-(trifluoromethyl)pyridin-3-yl)-2,3-dihydro-1H-inden-5-yl)methoxy)-5,5a,6,6a-tetrahydrocyclopropa [4,5]cyclopenta[1,2-c]pyridine-6-carboxylic acid]",14.1,20.8
